Data as given in patent US12116593B2, “Method for producing adenohypophysis or precursor tissue thereof” (RIKEN, priority 2014, dated 2024).
Ends that are not written are not given here.

Key:
Human ES cells (KhES-1) = test: Differentiation of human ES cell aggregates in serum-free suspension culture (SFEBq), fluorescent antibody method; assay type: cell-based
Description: Human ES cells (KhES-1) were subjected to maintenance culture by a conventional method on MEF and used. To monitor differentiation induction into a hypothalamus tissue, KhES-1 wherein Venus cDNA is knocked-in into the gene of Rx which is a hypothalamus neuroepithelium marker was used. To differentiate human ES cells by serum-free suspension culture of aggregate (SFEBq method), human ES cells were dispersed to single cells by enzyme by the method of Nakano et al. (Cell Stem Cell, 2012), and reaggregated in a low cell adhesive V-bottom 96 well plate (SUMITOMO BAKELITE). 5,000 cells were seeded per well, and cultured in the following differentiation medium at 5% CO2, 37° C. gfCDM medium (growth-factor-free Chemically Defined Medium; Wataya et al., PNAS, 2008)+5% KSR (Invitrogen).
With the day of seeding as day 0 of differentiation culture, 20 μM Y-27632 (ROCK inhibitor; inhibitor of cell death during dispersion: Watanabe et al., Nature Biotechnology, 2007) was added from day 0 to day 3, and a half of the medium was exchanged with a differentiation medium free of Y-27632 on days 3 and 6 of culture. From day 3 to day 18 of culture, BMP4 (final concentration 5 nM) was added to the medium. On and after day 18, a half of the medium was exchanged every 3 days with a medium free of BMP4. […] On and after day 18, the oxygen partial pressure during the culture was set to 40%. Tissue differentiation was analyzed by a fluorescent antibody method.
The cell aggregates derived from human ES cells and simultaneously containing ventral hypothalamus tissue and epidermal placode were formed by the method of Example 1, culture was continued until day 27 or day 30 of culture under similar conditions, and the aggregates were analyzed by a fluorescent antibody method. In some culture, FGF2 (final concentration 20 ng/ml) was added to the medium from day 15 of culture.
By the method of Example 1, an influence of the presence or absence of BMP4 addition on the differentiation of cell aggregates was analyzed by a fluorescent antibody method.
By the method of Example 1, an influence of the presence or absence of the addition of hedgehog signal agonist SAG on the differentiation of cell aggregate was analyzed by a fluorescent antibody method.
In addition to the method of Example 8, differentiation of hypophysial placode reacted with Notch signal inhibitor DAPT (10 μM) from day 72 to day 82 of culture was analyzed by a fluorescent antibody method.

Tbx19 = Tbx19 expression in aggregates by qPCR; assay type: cell-based, human; conditions: DAPT 10 μM day 65 to 74; aggregates on day 74
Experimental: According to the method of Example 5, hypophysial placode derived from human ES cells was formed, and cultured for a long term. DAPT (10 μM), a Notch signal inhibitor, was allowed to act thereon from day 65 to day 74 of culture, and the effect thereof was analyzed by a qPCR method.

[1] = system: aggregates containing ACTH-producing cells; test: In vitro ACTH release from aggregates containing ACTH-producing cells, ELISA; assay type: cell-based, human; conditions: 37° C.
Experimental: In vitro hormone secretory capacity was analyzed using the aggregates containing ACTH-producing cells produced by the method of Example 5. Using a 1.5 ml Eppendorf tube containing 250 μl of HBSS(−) containing 16 aggregates at day 80 of culture, the aggregates were incubated in the presence or absence of CRH (1 μg/ml) at 37° C. for 10 min. The concentration of ACTH in the culture supernatant was quantified by the ELISA method.
Furthermore, to examine feedback suppressive ability due to downstream hormone (glucocorticoid), 16 aggregates on day 80 of culture were preincubated in the presence or absence of hydrocortisone (20 μg/ml) at 37° C. for 3 hr, and the effect of release of ACTH after CRH treatment was analyzed.

mouse system = test: Exogenous BMP4 added to mouse system; assay type: cell-based
[2] = system: aggregate containing GH-producing cells; test: In vitro GH release from aggregates containing GH-producing cells, ELISA; assay type: cell-based, human; conditions: GRF 100 ng/ml, 37° C., 30 min; aggregates differentiated with hydrocortisone 1 μg/ml days 72-84; day 84
Experimental: In addition to the method of Example 10, in vitro hormone secretory capacity was analyzed using the aggregate containing GH-producing cells differentiated in a medium containing hydrocortisone (1 μg/ml) from days 72 to 84 of culture. Using a 1.5 ml Eppendorf tube containing 500 μl of HBSS containing 33 aggregates at day 84 of culture, the aggregates were incubated in the presence or absence of GRF (100 ng/ml) at 37° C. for 30 min. The concentration of GH in the culture supernatant was quantified by the ELISA method.
In addition to the method of Example 10, in vitro hormone secretory capacity was analyzed using the aggregate containing GH-producing cells differentiated in a medium containing dexamethasone (40 ng/ml) from days 70 to 84 of culture. Using a 1.5 ml Eppendorf tube containing 750 μl of a medium containing 30 aggregates at day 84 of culture, the aggregates were incubated in the presence of GRF (0.1, 1, 10 μg/ml) at 37° C. for 30 min. The concentration of GH in the culture supernatant was quantified by the ELISA method. In addition, in order to investigate a potential of somatostatin to suppress GH secretion, 18 aggregates at day 98 of culture were incubated in the presence or absence of somatostatin (100 ng/ml) at 37° C. for 90 min, and effects on GH release after GRF treatment were analyzed.

[3] = SAG 2 μM from day 6, with BMP4, day 24 and 27
[4] = BMP4 5 nM day 3-18 vs no addition, day 24

With `C[C@H](NC(=O)Cc1cc(F)cc(F)c1)C(=O)N[C@H](C(=O)OC(C)(C)C)c1ccccc1` [DAPT, N—[N-(3,5-difluorophenacetyl)-1-alanyl]-S-phenylglycine t-butyl ester] the “endocrine cells found in hypophysial placode after DAPT” value (Human ES cells (KhES-1); DAPT 10 μM day 72 to 82) was “LH-producing cells and FSH-producing cells were found in the hypophysial placode” and the “increase of Tbx19 expression vs non-treatment group” value (Tbx19) was at least 8 times.
`CN[C@H]1CC[C@H](N(Cc2cccc(-c3ccncc3)c2)C(=O)c2sc3ccccc3c2Cl)CC1` [SAG, 3-Chloro-N-[trans-4-(methylamino)cyclohexyl]-N-[[3-(4-pyridinyl)phenyl]methyl]-benzo[b]thiophene-2-carboxamide] was tested, and the “tissue differentiated under BMP4 non-addition conditions” value (Human ES cells (KhES-1); BMP4 not added, SAG 200 nM d6-25, day 24) was “FoxG1-positive and Nkx2.1-positive basal ganglion was differentiated”, the “formation of hypophysial placode on the surface” value (Human ES cells (KhES-1); [3]) was “hypophysial placode was formed on the surface” and the “tissue formed in the inside of the aggregates” value (Human ES cells (KhES-1); [3]) was “ventral hypothalamus tissue (Rx::Venus-positive, Chx10-negative, Nkx2.1-positive) was formed in the inside of the aggregates”.
With `C[C@]12CCC(=O)C=C1CC[C@@H]1[C@@H]2[C@@H](O)C[C@@]2(C)[C@H]1CC[C@]2(O)C(=O)CO` [hydrocortisone] the “ACTH concentration after CRH treatment relative to preincubation without hydrocortisone” value ([1]; hydrocortisone 20 μg/ml preincubation 3 hr, day 80 aggregates) was “less than one-sevenths”.
For “BMP4: bone morphogenetic factor signal transduction pathway activating substance; a known cytokine”, the “differentiation of neural tissue in the aggregate” value (Human ES cells (KhES-1); [4]) was “differentiation induction of neural tissue of hypothalamus”, the “formation of surface ectoderm” value (Human ES cells (KhES-1); [4]) was “active formation of surface ectoderm” and the “formation of neuroepithelial tissue (hypothalamus) inside the cell aggregate” value (mouse system) was “acted inhibitingly on the formation of the neuroepithelial tissue (hypothalamus)”. For the same compound, the “formation of surface ectoderm” value (mouse system) was “promoted formation of surface ectoderm”.
With “CRH: hypothalamic stimulus inducing release of ACTH from ACTH-producing cells (SEEPPISLDLTFHLLREVLEMARAEQLAQQAHSNRKLMEII; ends and bridges not checked; UniProt P06850 154-194, looked up)” the “ACTH concentration in culture supernatant vs incubation in absence of CRH” value ([1]; CRH 1 μg/ml, 10 min, 16 aggregates at day 80) was “not less than 5 fold”.
For “FGF2: known cytokine also called basic fibroblast growth factor (bFGF)”, the “increase of formation of hypophysial placode” value (Human ES cells (KhES-1); FGF2 20 ng/ml from day 15 of culture, day 27/30 aggregates) was 30%.
For “GRF: stimulus inducing release of GH from GH-producing cells (YADAIFTNSYRKVLGQLSARKLLQDIMSRQQGESNQERGARARL; ends and bridges not checked; UniProt P01286 32-75, looked up)”, the “GH concentration in culture supernatant vs incubation in absence of GRF” value [2] was “not less than 6 fold”.
